# Measured values taken from patent publication US7429658B2, “Synthesis of protected pyrrolobenzodiazepines” (Spirogen Limited, priority 2003, dated 2008).
# Columns and labels:
# [1] = Photolytic deprotection of N-10 protected PBD (irradiation at 365 nM), monitored by reversed phase HPLC; type: physicochemical; details: 0.25 g in MeOH (10 mL) irradiated at 365 nM; HPLC at 1 h intervals against standard of parent PBD 30
# Experimental: A solution of the N-10 protected PBD (0.25 g) in MeOH (10 mL was irradiated at 365 nM. The reaction was monitored by reversed phase HPLC (C18 column, 5 μM particle size, 250 mm×4.6 mm; mobile phase 70% H2O/30% CH3CN/0.1% TFA; detection at 245 nM) against a standard sample of the parent PBD 30. Aliquots of the reaction mixture (20 μL) were injected at 1 h intervals. The conversion to parent PBD was complete in 12 h.
# [2] = target: T1, Carboxypeptidase G2 (CPG2) (Pseudomonas sp., UniProt P06621); test: Carboxypeptidase G2 (CPG2) cleavage of prodrug to parent PBD imine, monitored by reversed phase HPLC; type: biochemical; details: 100 μM prodrug, CPG2 (1 unit), 100 mM Tris-HCl pH 7.3, 260 μM ZnCl2, 37° C.
# T1 sequence (P06621 23-415): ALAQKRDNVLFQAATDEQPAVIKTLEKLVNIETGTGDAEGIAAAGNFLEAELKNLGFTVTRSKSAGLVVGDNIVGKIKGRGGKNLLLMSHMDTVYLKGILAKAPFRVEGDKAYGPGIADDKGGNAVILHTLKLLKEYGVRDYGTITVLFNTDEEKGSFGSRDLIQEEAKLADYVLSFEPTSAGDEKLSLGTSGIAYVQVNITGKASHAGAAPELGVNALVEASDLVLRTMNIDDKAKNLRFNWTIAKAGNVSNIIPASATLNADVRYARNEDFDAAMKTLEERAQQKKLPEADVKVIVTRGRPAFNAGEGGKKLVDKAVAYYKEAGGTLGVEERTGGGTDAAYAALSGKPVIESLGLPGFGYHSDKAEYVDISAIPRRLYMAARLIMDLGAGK
# Experimental: (§1) An aliquot of a 10 mM stock solution of the carbamate monomer prodrug was diluted to 100 μM in Carboxypeptidase G2 (CPG2) assay buffer (100 mM Tris-HCl, pH 7.3; 260 μM ZnCl2). CPG2 (1 unit) was added and the reaction was incubated at 37° C. The reaction was monitored by reversed phase HPLC (C18 column, 5 μM particle size, 250 mm×4.6 mm; mobile phase 70% H2O/30% CH3CN/0.1% TFA; detection at 245 nM) with 20 μL aliquots being injected at 0, 10, 20, 30, 40, 50 and 60 min. The conversion of the prodrug to the parent imine 30 was complete in 60 minutes.
# as §1, with “carbamate dimer” for “carbamate monomer”, “0, 15,” for “0, 10, 20,”, “30, 45, 60” for “30, 40, 50”, “and 75” for “and 60”, “imine 61” for “imine 30”, “in 75 min.” for “in 60 minutes.”
smiles,measurement,setting,value
"COc1cc(COC(=O)N2c3cc(OC)c(OC)cc3C(=O)N3CCC[C@H]3[C@@H]2O)c([N+](=O)[O-])cc1OC [Compound 28, (11S,11aS)-7,8-Dimethoxy-11-hydroxy-5-oxo-1,2,3,10,11,11a-hexahydro-5H-pyrrolo[2,1-c][1,4]benzodiazepine-10-carboxylic acid 4,5-dimethoxy-2-nitro-benzyl ester]",conversion to parent PBD complete in,[1],≤ 12 h
"COc1cc2c(cc1OC)N(C(=O)OCc1ccc(OC(=O)N[C@@H](CCC(=O)O)C(=O)O)cc1)[C@@H](O)[C@@H]1CCCN1C2=O [Compound 46, 2-[4-((11S,11aS)-7,8-Dimethoxy-11-hydroxy-5-oxo-1,2,3,10,11,11a-hexahydro-5H-pyrrolo[2,1-c][1,4]benzodiazepine-10-carbonyloxymethyl)-phenoxycarbonylamino]-pentanedioic acid]",conversion of the prodrug to the parent imine 30 complete in,[2]; HPLC aliquots every 10 min to 60 min,≤ 60 min
"COc1cc2c(cc1OCCCCCOc1cc3c(cc1OC)C(=O)N1CCC[C@H]1[C@H](O)N3C(=O)OCc1ccc(OC(=O)N[C@@H](CCC(=O)O)C(=O)O)cc1)N(C(=O)OCc1ccc(OC(=O)N[C@@H](CCC(=O)O)C(=O)O)cc1)[C@@H](O)[C@@H]1CCCN1C2=O [Compound 68, 1,1′-[[Pentane-1,5-diyl]dioxy]bis[(11S,11aS)-10-[N-(4-(L-glutamylcarbonyloxy)benzyloxycarbonyl)]-11-hydroxy-7-methoxy-1,2,3,10,11,11a-hexahydro-5H-pyrrolo[2,1-c][1,4]benzodiazepine-5-one]]",conversion of the prodrug to the parent imine 61 complete in,[2]; HPLC aliquots every 15 min to 75 min,≤ 75 min
